Earlier results as cited in publication PMC6311893, “Computational prediction of plasma protein binding of cyclic peptides from small molecule experimental data using sparse modeling techniques” (BMC Bioinformatics, 2018).

test system: plasma protein; details: cited from earlier work

**Q.** With `O=C(O)[C@H]1O[C@@H](Oc2cc3oc(-c4ccc(O)cc4)cc(=O)c3c(O)c2O)[C@H](O)[C@@H](O)[C@@H]1O` [scutellarin] as the compound, how does the “PPB (fb)” value read?
**A.** The value was 0.82.

same assay, conditions: fraction bound to plasma protein; small molecule dataset, sheet 1-SM (Set Dte = test, Dtr = training); ref Ingle et al.; cited from earlier work

**Q.** With `CC(=O)O[C@H]1C[C@@H]2CC[C@@H]3[C@H](CC[C@@]4(C)[C@H]3C[C@H](N3CC[N+](C)(C)CC3)[C@@H]4OC(C)=O)[C@@]2(C)C[C@@H]1N1CC[N+](C)(C)CC1` [Pipecuronium] as the compound, how does the “PPB (fb)” value read?
**A.** Its value is 0.02.

**Q.** With `CC1(C)S[C@@H]2[C@H](NC(=O)COc3ccccc3)C(=O)N2[C@H]1C(=O)O` [Phenoxymethylpenicillin] as the compound, how does the “PPB (fb)” value read?
**A.** The value was 0.67.

**Q.** For `CCN(CC)Cc1cc(Nc2ccnc3cc(Cl)ccc23)ccc1O` [amodiaquine], which “PPB (fb)” value is on record?
**A.** Its value is 0.9.

**Q.** With `CCc1c2c(nc3ccc(OC(=O)N4CCC(N5CCCCC5)CC4)cc13)-c1cc3c(c(=O)n1C2)COC(=O)[C@]3(O)CC` [Irinotecan] as the compound, how does the “PPB (fb)” value read?
**A.** Its value is 0.57.

**Q.** For `OC(CNCC(O)C1CCc2cc(F)ccc2O1)C1CCc2cc(F)ccc2O1` (centres unmarked) [nebivolol], which “PPB (fb)” value is on record?
**A.** Its value is 0.98.

**Q.** With `CC(=O)N1CCN(c2ccc(OCC3COC(Cn4ccnc4)(c4ccc(Cl)cc4Cl)O3)cc2)CC1` (centres unmarked) [ketoconazole] as the compound, how does the “PPB (fb)” value read?
**A.** The value was 0.92.

**Q.** Which “PPB (fb)” value does the source give for `CC(C)(Oc1ccc(Cl)cc1)C(=O)O` [clofibric acid] here?
**A.** Its value is 0.98.

**Q.** With `CCOC(=O)OC(C)OC(=O)[C@@H]1N2C(=O)[C@@H](NC(=O)[C@H](N)c3ccccc3)[C@H]2SC1(C)C` (some centres unmarked) [bacampicillin] as the compound, how does the “PPB (fb)” value read?
**A.** Its value is 0.2.

**Q.** For `COc1ccc2c(c1)c(CC(=O)OCC(=O)O)c(C)n2C(=O)c1ccc(Cl)cc1` [acemetacin], which “PPB (fb)” value is on record?
**A.** The value was 0.9.

**Q.** With `COc1ccc(-n2cc(C(=O)O)c(=O)c3cc(F)c(N4CCN(C)CC4)cc32)cc1` [5ca (p-OCH3__N-CH3)] as the compound, how does the “PPB (fb)” value read?
**A.** The value was 0.43.

**Q.** With `COCCc1ccc(OCC(O)CNC(C)C)cc1` (centres unmarked) [Metoprolol] as the compound, how does the “PPB (fb)” value read?
**A.** Its value is 0.11.

**Q.** Which “PPB (fb)” value does the source give for `O=C(O)c1cn(-c2ccc(C(F)(F)F)cc2)c2cc(N3CCNCC3)c(F)cc2c1=O` [3c(p-CF3)] here?
**A.** The value was 0.42.

**Q.** Which “PPB (fb)” value does the source give for `NC(C(=O)NC1C(=O)N2C(C(=O)O)=C(Cl)CCC12)c1ccccc1` (centres unmarked) [loracarbef] here?
**A.** The value was 0.25.

**Q.** Which “PPB (fb)” value does the source give for `CC1(C)SC2C(NC(=O)C(N)c3ccc(Cl)c(Cl)c3)C(=O)N2C1C(=O)O` (centres unmarked) [penicillin29] here?
**A.** The value was 0.82.

same assay, conditions: fraction bound to plasma protein; small molecule dataset, sheet 1-SM, Set Dtr; ref Ingle et al.; cited from earlier work

**Q.** For `NCC[C@H](O)C(=O)N[C@@H]1C[C@H](N)[C@@H](O[C@H]2O[C@H](CN)[C@@H](O)[C@H](O)[C@H]2O)[C@H](O)[C@H]1O[C@H]1O[C@H](CO)[C@@H](O)[C@H](N)[C@H]1O` [Amikacin], which “PPB (fb)” value is on record?
**A.** Its value is 0.09.

**Q.** For `COC(=O)Nc1nc2ccc(C(=O)c3ccccc3)cc2[nH]1` [Mebendazole], which “PPB (fb)” value is on record?
**A.** The value was 0.93.

**Q.** With `COc1ccccc1OCCNCC(O)COc1cccc2[nH]c3ccccc3c12` (centres unmarked) [Carvedilol] as the compound, how does the “PPB (fb)” value read?
**A.** The value was 0.96.

**Q.** Which “PPB (fb)” value does the source give for `N=C(N)c1ccc(CNC(=O)[C@@H]2CCN2C(=O)[C@H](NCC(=O)O)C2CCCCC2)cc1` [Melagatran] here?
**A.** Its value is 0.07.

**Q.** With `Cc1c(Cl)cccc1Nc1ccccc1C(=O)O` [tolfenamic acid] as the compound, how does the “PPB (fb)” value read?
**A.** The value was 0.99.

**Q.** For `CC(C)N(CCC(C(N)=O)(c1ccccc1)c1ccccn1)C(C)C` (centres unmarked) [Disopyramide], which “PPB (fb)” value is on record?
**A.** Its value is 0.87.

**Q.** Which “PPB (fb)” value does the source give for `CCC[C@@H]1C[C@@H](C(=O)N[C@@H]([C@H]2O[C@H](SC)[C@H](O)[C@@H](O)[C@H]2O)[C@@H](C)O)N(C)C1` [Lincomycin] here?
**A.** Its value is 0.76.

**Q.** With `CC[C@H]1OC(=O)[C@H](C)[C@@H](O[C@H]2C[C@@](C)(OC)[C@@H](O)[C@H](C)O2)[C@H](C)[C@@H](O[C@@H]2O[C@H](C)C[C@H](N(C)C)[C@H]2O)[C@](C)(O)C[C@@H](C)C(=O)[C@H](C)[C@@H](O)[C@]1(C)O` [Erythromycin] as the compound, how does the “PPB (fb)” value read?
**A.** Its value is 0.86.

**Q.** For `NNC(=O)c1ccncc1` [Isoniazid], which “PPB (fb)” value is on record?
**A.** Its value is 0.01.

**Q.** With `N[C@@H](Cc1c[nH]c2ccccc12)C(=O)O` [Tryptophan] as the compound, how does the “PPB (fb)” value read?
**A.** The value was 0.8.

**Q.** With `Cc1nccn1CC1CCc2c(c3ccccc3n2C)C1=O` (centres unmarked) [Ondansetron] as the compound, how does the “PPB (fb)” value read?
**A.** Its value is 0.73.

**Q.** For `CCOC(=O)c1ncn2c1CN(C)C(=O)c1cc(F)ccc1-2` [Flumazenil], which “PPB (fb)” value is on record?
**A.** Its value is 0.46.

**Q.** With `COc1cc2nc(N3CCN(C(=O)C4COc5ccccc5O4)CC3)nc(N)c2cc1OC` (centres unmarked) [Doxazosin] as the compound, how does the “PPB (fb)” value read?
**A.** Its value is 0.97.

same assay, conditions: fraction bound to plasma protein; small molecule dataset, sheet 1-SM; ref Ingle et al.; cited from earlier work

**Q.** For `COc1cc2nc(N3CCN(C(=O)C4CCCO4)CC3)nc(N)c2cc1OC` (centres unmarked) [Terazosin], which “PPB (fb)” value is on record?
**A.** Its value is 0.91.

**Q.** With `CCc1ccc(CCOc2ccc(CC3SC(=O)NC3=O)cc2)nc1` (centres unmarked) [pioglitazone] as the compound, how does the “PPB (fb)” value read?
**A.** Its value is 0.99.

**Q.** For `CCOC(=O)[C@H](CCc1ccccc1)N[C@@H](C)C(=O)N1CCC[C@H]1C(=O)O` [enalapril], which “PPB (fb)” value is on record?
**A.** The value was 0.55.

**Q.** Which “PPB (fb)” value does the source give for lanatoside-C here?
**A.** The value was 0.25.

**Q.** Which “PPB (fb)” value does the source give for `CS(=O)(=O)c1ccc([C@@H](O)[C@@H](CF)NC(=O)C(Cl)Cl)cc1` [florfenicol] here?
**A.** The value was 0.12.

**Q.** Which “PPB (fb)” value does the source give for `O=C(OC1Cc2c(O)cc(O)cc2OC1c1cc(O)c(O)c(O)c1)c1cc(O)c(O)c(O)c1` (centres unmarked) [Epigallocatechin gallate] here?
**A.** The value was 0.91.

**Q.** With `c1ccc2c(c1)Sc1ccccc1N2CC1CN2CCC1CC2` (centres unmarked) [mequitazine] as the compound, how does the “PPB (fb)” value read?
**A.** Its value is 0.9.

**Q.** Which “PPB (fb)” value does the source give for `CC(C)OC(=O)C(C)(C)Oc1ccc(C(=O)c2ccc(Cl)cc2)cc1` [fenofibrate] here?
**A.** Its value is 0.99.

**Q.** For `CC1=C(/C=C/C(C)=C/C=C/C(C)=C\C(=O)O)C(C)(C)CCC1` [isotretinoin], which “PPB (fb)” value is on record?
**A.** The value was 0.95.

**Q.** Which “PPB (fb)” value does the source give for `COc1c(C)c2c(c(O)c1C/C=C(\C)CCC(=O)O)C(=O)OC2` [mycophenolic acid] here?
**A.** The value was 0.96.

**Q.** For `COc1nccnc1NS(=O)(=O)c1ccc(N)cc1` [sulfametopyrazine], which “PPB (fb)” value is on record?
**A.** Its value is 0.72.

**Q.** For `Cc1nc(NS(=O)(=O)c2ccc(N)cc2)oc1C` [sulfamoxole], which “PPB (fb)” value is on record?
**A.** The value was 0.7.

**Q.** Which “PPB (fb)” value does the source give for `Cc1cc2nc3c(=O)[nH]c(=O)nc-3n(C[C@H](O)[C@H](O)[C@H](O)CO)c2cc1C` [riboflavin] here?
**A.** The value was 0.6.

**Q.** With `COc1cc(Cc2cnc(N)nc2N)cc(OC)c1OC` [Trimethoprim] as the compound, how does the “PPB (fb)” value read?
**A.** Its value is 0.46.

**Q.** Which “PPB (fb)” value does the source give for `O=C(O)COc1ccc(C(=O)c2cccs2)c(Cl)c1Cl` [tienilic acid] here?
**A.** Its value is 0.99.

**Q.** With `CC(=O)Oc1cc(C(C)C)c(OCCN(C)C)cc1C` [Moxisylyte] as the compound, how does the “PPB (fb)” value read?
**A.** Its value is 0.26.

same assay, conditions: plasma; cited from earlier work

**Q.** With `COC1C(C)OC(OC2C=C3CCC4C(CCC5(C)C(c6ccc(=O)oc6)CCC45O)C3(C)CC2)C(O)C1O` (centres unmarked) [meproscillarin] as the compound, how does the “PPB (fb)” value read?
**A.** Its value is 0.96.

**Q.** Which “PPB (fb)” value does the source give for Gabapentin here?
**A.** The value was 0.02.

**Q.** For `CCC1(c2ccccc2)CCC(=O)NC1=O` (centres unmarked) [glutethimide], which “PPB (fb)” value is on record?
**A.** The value was 0.5.

**Q.** Which “PPB (fb)” value does the source give for `CCc1cc2c(s1)-n1c(C)nnc1CN=C2c1ccccc1Cl` [etizolam] here?
**A.** The value was 0.93.

**Q.** With `CCN(CC)C(=O)N[C@H]1C=C2c3cccc4[nH]cc(c34)C[C@H]2N(C)C1` [lisuride] as the compound, how does the “PPB (fb)” value read?
**A.** The value was 0.7.

**Q.** Which “PPB (fb)” value does the source give for `CC[C@@H](CO)NC(=O)[C@@H]1C=C2c3cccc4c3c(cn4C)C[C@H]2N(C)C1` [methysergide] here?
**A.** The value was 0.66.

**Q.** For `Cc1cc(=O)n(-c2ccccc2)n1C` [Antipyrine], which “PPB (fb)” value is on record?
**A.** Its value is 0.07.

**Q.** Which “PPB (fb)” value does the source give for `CC(=O)OC1CC(OC2C(O)CC(OC3C(O)CC(OC4CCC5(C)C(CCC6C5CCC5(C)C(C7=CC(=O)OC7)CCC65O)C4)OC3C)OC2C)OC(C)C1O` (centres unmarked) [acetyldigitoxin] here?
**A.** The value was 0.8.

**Q.** With `CCOC(=O)[C@H](CCc1ccccc1)N[C@@H](C)C(=O)N1[C@H](C(=O)O)C[C@@H]2CCC[C@@H]21` [ramipril] as the compound, how does the “PPB (fb)” value read?
**A.** Its value is 0.61.

**Q.** For quinagolide, which “PPB (fb)” value is on record?
**A.** The value was 0.9.

**Q.** Which “PPB (fb)” value does the source give for `CC(Cc1ccc(O)cc1)NCC(O)c1cc(O)cc(O)c1` (centres unmarked) [Fenoterol] here?
**A.** Its value is 0.47.

**Q.** With `O=C1CN=C(c2ccccc2Cl)c2cc(Cl)ccc2N1` [Delorazepam (Chlordesmethyldiazepam)] as the compound, how does the “PPB (fb)” value read?
**A.** The value was 0.95.

**Q.** Which “PPB (fb)” value does the source give for `CCCC(C)C1(CC)C(=O)NC(=O)NC1=O` (centres unmarked) [Pentobarbital] here?
**A.** Its value is 0.56.

**Q.** Which “PPB (fb)” value does the source give for Isradipine here?
**A.** Its value is 0.95.

**Q.** Which “PPB (fb)” value does the source give for ethyl-biscoumacetate here?
**A.** Its value is 0.9.
